Source: PubChem BioAssay (NCI)
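In this assay, cells in 96-well plates receive the compound at five concentrations for 48 hours. Endpoints are linearly interpolated between the surrounding concentrations. GI50 is the concentration that inhibits growth by half. At the TGI there is no net growth.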

Assays:
Experiment in all cases: inhibition of tumour cell growth, NCI panel, 48 h
NCI-H522 lung = test system: NCI-H522 lung
OVCAR-4 ovarian = test system: OVCAR-4 ovarian
HL-60(TB) leukemia = test system: HL-60(TB) leukemia
786-0 renal = test system: 786-0 renal
K-562 leukemia = test system: K-562 leukemia
NCI/ADR-RES ovarian = test system: NCI/ADR-RES ovarian
T-47D breast = test system: T-47D breast
MALME-3M melanoma = test system: MALME-3M melanoma
NCI-H226 lung = test system: NCI-H226 lung
SK-MEL-5 melanoma = test system: SK-MEL-5 melanoma
UACC-257 melanoma = test system: UACC-257 melanoma
CAKI-1 renal = test system: CAKI-1 renal
UO-31 renal = test system: UO-31 renal
OVCAR-8 ovarian = test system: OVCAR-8 ovarian
A498 renal = test system: A498 renal
EKVX NSCLC = test system: EKVX NSCLC
PC-3 prostate = test system: PC-3 prostate
HCC-2998 colon = test system: HCC-2998 colon
NCI-H23 lung = test system: NCI-H23 lung
SNB-75 CNS = test system: SNB-75 CNS
HS 578T breast = test system: HS 578T breast
ACHN renal = test system: ACHN renal
DU-145 prostate = test system: DU-145 prostate
HCT-116 colon = test system: HCT-116 colon
HOP-92 NSCLC = test system: HOP-92 NSCLC
MDA-N = test system: MDA-N
SR leukemia = test system: SR leukemia
A549 NSCLC = test system: A549 NSCLC
OVCAR-5 ovarian = test system: OVCAR-5 ovarian
RXF 393 renal = test system: RXF 393 renal
NCI-H460 lung = test system: NCI-H460 lung
MDA-MB-231 breast = test system: MDA-MB-231 breast
SN12C renal = test system: SN12C renal
SF-268 CNS = test system: SF-268 CNS
KM12 colon = test system: KM12 colon
SK-MEL-2 melanoma = test system: SK-MEL-2 melanoma
UACC-62 melanoma = test system: UACC-62 melanoma
HT29 colon = test system: HT29 colon
SK-MEL-28 melanoma = test system: SK-MEL-28 melanoma
SW-620 colon = test system: SW-620 colon
LOX IMVI melanoma = test system: LOX IMVI melanoma
SK-OV-3 ovarian = test system: SK-OV-3 ovarian
COLO 205 colon = test system: COLO 205 colon
MDA-MB-435 = test system: MDA-MB-435
RPMI-8226 leukemia = test system: RPMI-8226 leukemia
IGROV1 ovarian = test system: IGROV1 ovarian
CCRF-CEM leukemia = test system: CCRF-CEM leukemia
SF-539 CNS = test system: SF-539 CNS
HOP-62 NSCLC = test system: HOP-62 NSCLC
SNB-19 CNS = test system: SNB-19 CNS
TK-10 renal = test system: TK-10 renal
SF-295 CNS = test system: SF-295 CNS
HCT-15 colon = test system: HCT-15 colon
U251 CNS = test system: U251 CNS
MOLT-4 leukemia = test system: MOLT-4 leukemia
M14 melanoma = test system: M14 melanoma
MCF7 breast = test system: MCF7 breast
BT-549 breast = test system: BT-549 breast
OVCAR-3 ovarian = test system: OVCAR-3 ovarian

## Cn1c(=Nc2ccccc2[N+](=O)[O-])sc2ccccc21
NCI-H522 lung
  TGI: > 100 µM
OVCAR-4 ovarian
  TGI: 86.9 µM
HL-60(TB) leukemia
  TGI: > 100 µM
786-0 renal
  TGI: > 100 µM
K-562 leukemia
  TGI: > 100 µM
NCI/ADR-RES ovarian
  TGI: > 100 µM
T-47D breast
  TGI: > 100 µM
MALME-3M melanoma
  TGI: > 100 µM
NCI-H226 lung
  TGI: > 100 µM
SK-MEL-5 melanoma
  TGI: > 100 µM
UACC-257 melanoma
  TGI: > 100 µM
CAKI-1 renal
  TGI: > 100 µM
UO-31 renal
  TGI: > 100 µM
OVCAR-8 ovarian
  TGI: > 100 µM
A498 renal
  TGI: > 100 µM
EKVX NSCLC
  TGI: > 100 µM
PC-3 prostate
  TGI: > 100 µM
HCC-2998 colon
  TGI: > 100 µM
NCI-H23 lung
  TGI: > 100 µM
SNB-75 CNS
  TGI: 89 µM
HS 578T breast
  TGI: > 100 µM
ACHN renal
  TGI: > 100 µM
DU-145 prostate
  TGI: > 100 µM
HCT-116 colon
  TGI: > 100 µM
HOP-92 NSCLC
  TGI: 61.7 µM
MDA-N
  TGI: > 100 µM
SR leukemia
  TGI: > 100 µM
A549 NSCLC
  TGI: > 100 µM
OVCAR-5 ovarian
  TGI: > 100 µM
RXF 393 renal
  TGI: > 100 µM
NCI-H460 lung
  TGI: > 100 µM
MDA-MB-231 breast
  TGI: > 100 µM
SN12C renal
  TGI: > 100 µM
SF-268 CNS
  TGI: > 100 µM
KM12 colon
  TGI: 15.5 µM
SK-MEL-2 melanoma
  TGI: > 100 µM
UACC-62 melanoma
  TGI: > 100 µM
HT29 colon
  TGI: > 100 µM
SK-MEL-28 melanoma
  TGI: > 100 µM
SW-620 colon
  TGI: > 100 µM
LOX IMVI melanoma
  TGI: > 100 µM
SK-OV-3 ovarian
  TGI: 97.2 µM
COLO 205 colon
  TGI: > 100 µM
MDA-MB-435
  TGI: > 100 µM
RPMI-8226 leukemia
  TGI: > 100 µM
IGROV1 ovarian
  TGI: > 100 µM
CCRF-CEM leukemia
  TGI: > 100 µM
SF-539 CNS
  TGI: > 100 µM
HOP-62 NSCLC
  TGI: 48.3 µM
SNB-19 CNS
  TGI: > 100 µM
TK-10 renal
  TGI: 45.2 µM
SF-295 CNS
  TGI: > 100 µM
HCT-15 colon
  TGI: > 100 µM
U251 CNS
  TGI: > 100 µM
MOLT-4 leukemia
  TGI: > 100 µM

## COc1ccccc1-c1nc[nH]c1-c1ccccc1OC
NCI-H522 lung
  TGI: 42.1 µM
OVCAR-4 ovarian
  TGI: > 100 µM
M14 melanoma
  TGI: 78.3 µM
786-0 renal
  TGI: > 100 µM
K-562 leukemia
  TGI: 65 µM
NCI/ADR-RES ovarian
  TGI: 61.8 µM
T-47D breast
  TGI: > 100 µM
MALME-3M melanoma
  TGI: 52.9 µM
UACC-257 melanoma
  TGI: > 100 µM
CAKI-1 renal
  TGI: > 100 µM
UO-31 renal
  TGI: > 100 µM
A498 renal
  TGI: > 100 µM
EKVX NSCLC
  TGI: > 100 µM
PC-3 prostate
  TGI: > 100 µM
MCF7 breast
  TGI: > 100 µM
NCI-H23 lung
  TGI: > 100 µM
SNB-75 CNS
  TGI: 60.7 µM
ACHN renal
  TGI: > 100 µM
HCT-116 colon
  TGI: > 100 µM
HOP-92 NSCLC
  TGI: > 100 µM
MDA-N
  TGI: 34.9 µM
A549 NSCLC
  TGI: > 100 µM
OVCAR-5 ovarian
  TGI: > 100 µM
BT-549 breast
  TGI: > 100 µM
RXF 393 renal
  TGI: 87.1 µM
NCI-H460 lung
  TGI: > 100 µM
MDA-MB-231 breast
  TGI: > 100 µM
SN12C renal
  TGI: > 100 µM
SF-268 CNS
  TGI: 65.3 µM
KM12 colon
  TGI: 28.3 µM
SK-MEL-2 melanoma
  TGI: > 100 µM
SK-MEL-28 melanoma
  TGI: > 100 µM
SW-620 colon
  TGI: > 100 µM
LOX IMVI melanoma
  TGI: 41.7 µM
SK-OV-3 ovarian
  TGI: > 100 µM
RPMI-8226 leukemia
  TGI: > 100 µM
IGROV1 ovarian
  TGI: > 100 µM
HOP-62 NSCLC
  TGI: > 100 µM
SNB-19 CNS
  TGI: > 100 µM
TK-10 renal
  TGI: > 100 µM
SF-295 CNS
  TGI: 97.9 µM
HCT-15 colon
  TGI: > 100 µM
OVCAR-3 ovarian
  TGI: > 100 µM
MOLT-4 leukemia
  TGI: > 100 µM

## CC(=O)Nc1ccc2c(c1)[nH]c(=O)c1cc(NC(C)=O)ccc12
NCI-H522 lung
  GI50: > 100 µM
  TGI: > 100 µM
OVCAR-4 ovarian
  GI50: > 100 µM
  TGI: > 100 µM
M14 melanoma
  GI50: > 100 µM
  TGI: > 100 µM
HL-60(TB) leukemia
  GI50: 26.6 µM
  TGI: > 100 µM
786-0 renal
  GI50: > 100 µM
  TGI: > 100 µM
K-562 leukemia
  GI50: 59.5 µM
  TGI: > 100 µM
NCI/ADR-RES ovarian
  GI50: > 100 µM
  TGI: > 100 µM
T-47D breast
  GI50: > 100 µM
  TGI: > 100 µM
MALME-3M melanoma
  GI50: > 100 µM
  TGI: > 100 µM
NCI-H226 lung
  GI50: > 100 µM
  TGI: > 100 µM
SK-MEL-5 melanoma
  GI50: > 100 µM
  TGI: > 100 µM
UACC-257 melanoma
  GI50: > 100 µM
  TGI: > 100 µM
CAKI-1 renal
  GI50: > 100 µM
  TGI: > 100 µM
UO-31 renal
  GI50: > 100 µM
  TGI: > 100 µM
OVCAR-8 ovarian
  GI50: > 100 µM
  TGI: > 100 µM
A498 renal
  GI50: > 100 µM
  TGI: > 100 µM
EKVX NSCLC
  GI50: > 100 µM
  TGI: > 100 µM
PC-3 prostate
  GI50: > 100 µM
  TGI: > 100 µM
HCC-2998 colon
  GI50: > 100 µM
  TGI: > 100 µM
MCF7 breast
  GI50: > 100 µM
  TGI: > 100 µM
NCI-H23 lung
  GI50: > 100 µM
  TGI: > 100 µM
SNB-75 CNS
  GI50: 41.2 µM
  TGI: > 100 µM
HS 578T breast
  GI50: > 100 µM
  TGI: > 100 µM
ACHN renal
  GI50: > 100 µM
  TGI: > 100 µM
DU-145 prostate
  GI50: > 100 µM
  TGI: > 100 µM
HCT-116 colon
  GI50: > 100 µM
  TGI: > 100 µM
HOP-92 NSCLC
  GI50: 31.9 µM
  TGI: > 100 µM
SR leukemia
  GI50: 15.5 µM
  TGI: 53.4 µM
A549 NSCLC
  GI50: > 100 µM
  TGI: > 100 µM
OVCAR-5 ovarian
  GI50: > 100 µM
  TGI: > 100 µM
BT-549 breast
  GI50: > 100 µM
  TGI: > 100 µM
RXF 393 renal
  GI50: > 100 µM
  TGI: > 100 µM
NCI-H460 lung
  GI50: > 100 µM
  TGI: > 100 µM
MDA-MB-231 breast
  GI50: 90.2 µM
  TGI: > 100 µM
SN12C renal
  GI50: > 100 µM
  TGI: > 100 µM
SF-268 CNS
  GI50: > 100 µM
  TGI: > 100 µM
KM12 colon
  GI50: > 100 µM
  TGI: > 100 µM
SK-MEL-2 melanoma
  GI50: > 100 µM
  TGI: > 100 µM
UACC-62 melanoma
  GI50: > 100 µM
  TGI: > 100 µM
HT29 colon
  GI50: > 100 µM
  TGI: > 100 µM
SK-MEL-28 melanoma
  GI50: > 100 µM
  TGI: > 100 µM
SW-620 colon
  GI50: > 100 µM
  TGI: > 100 µM
LOX IMVI melanoma
  GI50: > 100 µM
  TGI: > 100 µM
SK-OV-3 ovarian
  GI50: > 100 µM
  TGI: > 100 µM
COLO 205 colon
  GI50: > 100 µM
  TGI: > 100 µM
MDA-MB-435
  GI50: > 100 µM
  TGI: > 100 µM
RPMI-8226 leukemia
  GI50: > 100 µM
  TGI: > 100 µM
IGROV1 ovarian
  GI50: > 100 µM
  TGI: > 100 µM
CCRF-CEM leukemia
  GI50: 53.5 µM
  TGI: > 100 µM
SF-539 CNS
  GI50: > 100 µM
  TGI: > 100 µM
HOP-62 NSCLC
  GI50: > 100 µM
  TGI: > 100 µM
SNB-19 CNS
  GI50: > 100 µM
  TGI: > 100 µM
TK-10 renal
  GI50: > 100 µM
  TGI: > 100 µM
SF-295 CNS
  GI50: > 100 µM
  TGI: > 100 µM
HCT-15 colon
  GI50: > 100 µM
  TGI: > 100 µM
OVCAR-3 ovarian
  GI50: > 100 µM
  TGI: > 100 µM
U251 CNS
  GI50: 52 µM
  TGI: > 100 µM
MOLT-4 leukemia
  GI50: 20 µM
  TGI: 50 µM
